The supplement of paper PMC11061612

Key:
Assay in all cases: Bliss excess, mean over the matrix (fraction); higher = more synergy
[1] = test system: LB831-BLC (Bladder Carcinoma)
Summary of the method: (§1)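 Bliss excess equals the observed combination effect minus the expected value EA + EB − EA·EB, where EA and EB are the effects of each agent alone. Combination Emax is the second-highest inhibition within the matrix. Inhibition was scaled from CellTiter-Glo 2.0 luminescence, with 0 set by vehicle wells and 1 by blank wells, after 72 hours of two-drug dosing of cells plated in 1536-well plates.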

[2] = test system: NCI-H82 (Small Cell Lung Carcinoma)
Summary of the method: as §1

[3] = test system: Hs-578-T (Breast Carcinoma)
Summary of the method: as §1

[4] = test system: OVCA420 (Ovarian Carcinoma)
Summary of the method: as §1

[5] = test system: ME-1 (Acute Myeloid Leukemia)
Summary of the method: as §1

[6] = test system: Daoy (Other Solid Carcinomas)
Summary of the method: as §1

HOS (Osteosarcoma) = test system: HOS (Osteosarcoma)
Summary of the method: as §1

[7] = test system: COLO-205 (Colorectal Carcinoma)
Summary of the method: as §1

[8] = test system: SNU-5 (Gastric Carcinoma)
Summary of the method: as §1

[9] = test system: HCC-78 (Lung Adenocarcinoma)
Summary of the method: as §1

[10] = test system: RC-K8 (B-Cell Non-Hodgkin's Lymphoma)
Summary of the method: as §1

[11] = test system: TE-15 (Esophageal Squamous Cell Carcinoma)
Summary of the method: as §1

AGS (Gastric Carcinoma) = test system: AGS (Gastric Carcinoma)
Summary of the method: as §1

42-MG-BA (Glioblastoma) = test system: 42-MG-BA (Glioblastoma)
Summary of the method: as §1

[12] = test system: RO82-W-1 (Thyroid Gland Carcinoma)
Summary of the method: as §1

T98G (Glioblastoma) = test system: T98G (Glioblastoma)
Summary of the method: as §1

[13] = test system: CCRF-CEM (T-Lymphoblastic Leukemia)
Summary of the method: as §1

[14] = test system: LU-135 (Small Cell Lung Carcinoma)
Summary of the method: as §1

KELLY (Neuroblastoma) = test system: KELLY (Neuroblastoma)
Summary of the method: as §1

[15] = test system: KURAMOCHI (Ovarian Carcinoma)
Summary of the method: as §1

Row | SMILES | Bliss excess [1] | Bliss excess [2] | Bliss excess [3] | Bliss excess [4] | Bliss excess [5] | Bliss excess [6] | Bliss excess (HOS (Osteosarcoma)) | Bliss excess [7] | Bliss excess [8] | Bliss excess [9] | Bliss excess [10] | Bliss excess [11] | Bliss excess (AGS (Gastric Carcinoma)) | Bliss excess (42-MG-BA (Glioblastoma)) | Bliss excess [12] | Bliss excess (T98G (Glioblastoma)) | Bliss excess [13] | Bliss excess [14] | Bliss excess (KELLY (Neuroblastoma)) | Bliss excess [15]
1 | CN(CCO)CC[C@H](CSc1ccccc1)Nc1ccc(S(=O)(=O)NC(=O)c2ccc(N3CCC([C@@H](O)c4ccccc4-c4ccc(Cl)cc4)CC3)cc2)cc1S(=O)(=O)C(F)(F)F [AZD4320] + C[C@@H](Nc1cc(F)cc(F)c1)c1cc(C(=O)N(C)C)cc2c(=O)cc(N3CCOCC3)oc12 [AZD8186] (first compound max 1 µM, 7x7, partner max 3 µM) | 0.0441 | 0.0359 | -0.0314 | 0.002 | 0.0013 | -0.0261 | 0.0607 | -0.0302 | 0.0726 | 0.003 | -0.015 | -0.0335 | 0.018 | 0.0453 | -0.0581 | 0.0151 | 0.0013 | 0.0404 | 0.029 | 0.0147
2 | CN(CCO)CC[C@H](CSc1ccccc1)Nc1ccc(S(=O)(=O)NC(=O)c2ccc(N3CCC([C@@H](O)c4ccccc4-c4ccc(Cl)cc4)CC3)cc2)cc1S(=O)(=O)C(F)(F)F [AZD4320] + Cc1cc2ncnn2cc1Nc1ncc2c(n1)n(C1CCOCC1)c(=O)n2C [AZD7648] (first compound max 1 µM, 7x7, partner max 10 µM) | 0.0041 | 0.012 | 0.0165 | -0.0436 | 0.0237 | -0.042 | -0.0225 | -0.0132 | -0.0151 | -0.0227 | 0.0198 | -0.046 | -0.0298 | -0.0244 | -0.0613 | -0.0493 | 0.0282 | 0.0109 | 0.0306 | -0.0239
3 | CN(CCO)CC[C@H](CSc1ccccc1)Nc1ccc(S(=O)(=O)NC(=O)c2ccc(N3CCC([C@@H](O)c4ccccc4-c4ccc(Cl)cc4)CC3)cc2)cc1S(=O)(=O)C(F)(F)F [AZD4320] + Cn1cnc2c(F)c(Nc3ccc(Br)cc3Cl)c(C(=O)NOCCO)cc21 [Selumetinib] (first compound max 1 µM, 7x7, partner max 3 µM) | -0.0298 | -0.0009 | -0.0492 | 0.0225 | 0.0484 | 0.129 | 0.0245 | 0.026 | 0.118 | 0.0491 | 0.0467 | -0.0391 | 0.181 | 0.0167 | -0.0139 | 0.0206 | 0.0099 | 0.0266 | 0.0525 | 0.0636
4 | COc1nnc2ccc(N3CCC(c4ccc(OCCN5CCN(C)C(=O)[C@H]5C)cc4)CC3)nn12 [AZD5153] + C=CCn1c(=O)c2cnc(Nc3ccc(N4CCN(C)CC4)cc3)nc2n1-c1cccc(C(C)(C)O)n1 [AZD1775] (first compound max 1 µM, partner max 1 µM) | -0.0157 | -0.0656 | -0.0661 | -0.0589 | -0.0446 | -0.0196 | -0.0504 | -0.0529 | -0.0759 | -0.055 | -0.101 | -0.001 | -0.0294 | -0.0577 | 0.038 | -0.0092 | -0.019 | -0.004 | -0.0581 | -0.0373
5 | COc1nnc2ccc(N3CCC(c4ccc(OCCN5CCN(C)C(=O)[C@H]5C)cc4)CC3)nn12 [AZD5153] + CC1(C)CCC(CN2CCN(c3ccc(C(=O)NS(=O)(=O)c4ccc(NCC5CCOCC5)c([N+](=O)[O-])c4)c(Oc4cnc5[nH]ccc5c4)c3)CC2)=C(c2ccc(Cl)cc2)C1 [Venetoclax] (first compound max 1 µM, 7x7, partner max 1 µM) | -0.0627 | -0.103 | -0.0614 | -0.0527 | 0.0529 | -0.0568 | -0.0508 | -0.0745 | -0.0754 | -0.0448 | -0.0587 | -0.0698 | -0.0619 | -0.0391 | -0.0712 | -0.0115 | -0.0742 | -0.001 | -0.0857 | -0.0471
6 | COc1nnc2ccc(N3CCC(c4ccc(OCCN5CCN(C)C(=O)[C@H]5C)cc4)CC3)nn12 [AZD5153] + CCN(CCO)CCCOc1ccc2c(Nc3cc(CC(=O)Nc4cccc(F)c4)[nH]n3)ncnc2c1 [AZD2811] (first compound max 1 µM, 7x7, partner max 1 µM) | -0.0647 | -0.064 | -0.0345 | -0.0547 | -0.0534 | -0.0369 | -0.0093 | -0.0595 | -0.0501 | -0.0314 | 0.0154 | -0.0535 | 0.0294 | -0.0476 | -0.0483 | -0.014 | -0.0407 | -0.0449 | -0.0406 | -0.0149
7 | COc1nnc2ccc(N3CCC(c4ccc(OCCN5CCN(C)C(=O)[C@H]5C)cc4)CC3)nn12 [AZD5153] + C[C@@H]1COCCN1C2=NC(=NC(=C2)C3(CC3)[S@](=N)(=O)C)C4=C5C=CNC5=NC=C4 [AZD6738] (first compound max 1 µM, 7x7, partner max 10 µM) | 0.0393 | -0.0906 | -0.0231 | -0.0057 | -0.0693 | -0.0356 | -0.0413 | -0.0115 | -0.0128 | -0.0235 | -0.0424 | -0.0096 | 0.0381 | -0.0155 | 0.0259 | -0.0206 | -0.0178 | 0.0397 | -0.0107 | 0.0157
8 | COc1nnc2ccc(N3CCC(c4ccc(OCCN5CCN(C)C(=O)[C@H]5C)cc4)CC3)nn12 [AZD5153] + Cc1c2c(nn1C)CSCc1cc(n(C)n1)CSc1cc(c3ccccc3c1)OCCCc1c(C(=O)O)n(C)c3c-2c(Cl)ccc13 [AZD5991] (first compound max 1 µM, 7x7, partner max 1 µM) | -0.0588 | -0.0659 | -0.0338 | -0.0933 | -0.0162 | -0.0133 | 0.0009 | -0.0303 | -0.0069 | -0.0184 | -0.0446 | -0.0124 | -0.0166 | 0.0576 | -0.0181 | 0.0021 | -0.0035 | 0.0517 | 0.0357 | 0.0332
9 | COc1nnc2ccc(N3CCC(c4ccc(OCCN5CCN(C)C(=O)[C@H]5C)cc4)CC3)nn12 [AZD5153] + Cn1cnc2c(F)c(Nc3ccc(Br)cc3Cl)c(C(=O)NOCCO)cc21 [Selumetinib] (first compound max 1 µM, 7x7, partner max 10 µM) | -0.0446 | -0.0771 | -0.0344 | 0.0303 | -0.0302 | -0.0253 | 0.0429 | 0.0422 | -0.0254 | 0.0035 | -0.048 | 0.0225 | 0.0163 | -0.0245 | 0.038 | 0.0403 | -0.0015 | -0.0138 | 0.13 | -0.0242
10 | Cc1c2c(nn1C)CSCc1cc(n(C)n1)CSc1cc(c3ccccc3c1)OCCCc1c(C(=O)O)n(C)c3c-2c(Cl)ccc13 [AZD5991] + C1CN(CCC1(C(=O)N[C@@H](CCO)C2=CC=C(C=C2)Cl)N)C3=NC=NC4=C3C=CN4 [Capivasertib] (first compound max 1 µM, 7x7, partner max 3 µM) | 0.0133 | -0.008 | -0.0866 | 0.0186 | 0.0415 | 0.0248 | -0.0083 | -0.023 | 0.0135 | 0.0056 | -0.03 | -0.0196 | 0.0013 | -0.0442 | -0.016 | -0.0178 | 0.0618 | -0.0112 | 0.0246 | 0.0205
11 | Cc1c2c(nn1C)CSCc1cc(n(C)n1)CSc1cc(c3ccccc3c1)OCCCc1c(C(=O)O)n(C)c3c-2c(Cl)ccc13 [AZD5991] + C=CCn1c(=O)c2cnc(Nc3ccc(N4CCN(C)CC4)cc3)nc2n1-c1cccc(C(C)(C)O)n1 [AZD1775] (first compound max 1 µM, partner max 1 µM) | -0.0044 | -0.0532 | -0.0244 | -0.0002 | 0.041 | 0.0375 | -0.0274 | -0.0959 | -0.0291 | -0.0329 | -0.0294 | -0.0135 | -0.0145 | 0.0071 | -0.0197 | -0.0198 | -0.0011 | -0.0654 | 0.0322 | -0.0346
12 | Cc1c2c(nn1C)CSCc1cc(n(C)n1)CSc1cc(c3ccccc3c1)OCCCc1c(C(=O)O)n(C)c3c-2c(Cl)ccc13 [AZD5991] + CC1(C)CCC(CN2CCN(c3ccc(C(=O)NS(=O)(=O)c4ccc(NCC5CCOCC5)c([N+](=O)[O-])c4)c(Oc4cnc5[nH]ccc5c4)c3)CC2)=C(c2ccc(Cl)cc2)C1 [Venetoclax] (first compound max 1 µM, 7x7, partner max 1 µM) | -0.0229 | -0.036 | -0.0513 | -0.0045 | 0.0654 | 0.0496 | 0.0413 | -0.0335 | -0.0127 | -0.0245 | -0.0142 | -0.05 | 0.0132 | -0.025 | -0.0523 | 0.0004 | 0.0935 | 0.0178 | 0.249 | 0.0511
13 | Cc1c2c(nn1C)CSCc1cc(n(C)n1)CSc1cc(c3ccccc3c1)OCCCc1c(C(=O)O)n(C)c3c-2c(Cl)ccc13 [AZD5991] + CCN(CCO)CCCOc1ccc2c(Nc3cc(CC(=O)Nc4cccc(F)c4)[nH]n3)ncnc2c1 [AZD2811] (first compound max 1 µM, 7x7, partner max 1 µM) | 0.0076 | 0.103 | 0.0487 | -0.0245 | 0.0139 | 0.0678 | 0.007 | 0.0153 | 0.0306 | 0.0209 | 0.09 | 0.0649 | 0.0374 | 0.0282 | -0.0642 | -0.0339 | -0.0343 | 0.0109 | 0.0071 | -0.0046
14 | Cc1c2c(nn1C)CSCc1cc(n(C)n1)CSc1cc(c3ccccc3c1)OCCCc1c(C(=O)O)n(C)c3c-2c(Cl)ccc13 [AZD5991] + CN(C)CCCOc1ccc(-c2ccc3ncc4c(c3c2)n(C2CCOCC2)c(=O)n4C)cn1 [AZD0156] (first compound max 1 µM, 7x7, partner max 1 µM) | 0.0072 | -0.0207 | 0.0816 | -0.0333 | 0.0237 | 0.0145 | -0.0026 | 0.0261 | 0.0154 | -0.0059 | 0.0237 | 0.0128 | -0.0258 | 0.0259 | 0.0257 | 0.008 | 0.0467 | -0.0413 | -0.0469 | -0.0666
